Assay results from ChEMBL document CHEMBL3885881, “DrugMatrix”.

Species: Rattus norvegicus
Assay: DrugMatrix - Regimen: Daily Repeat
Assay type: toxicity, organism-based, Sprague-Dawley
Design: regimen Daily Repeat, gender Male, age 6-8 weeks
Settings: in vivo, iv, vehicle 100 % SALINE; for ABSOLUTE BASOPHIL / ABSOLUTE EOSINOPHIL / ABSOLUTE LYMPHOCYTE / ABSOLUTE MONOCYTE / ABSOLUTE SEGMENTED NEUTROPHIL / BASOPHIL / EOSINOPHIL / ERYTHROCYTE COUNT / HEMATOCRIT / HEMOGLOBIN / LEUKOCYTE COUNT / LYMPHOCYTE / MEAN CORPUSCULAR HEMOGLOBIN / MEAN CORPUSCULAR HEMOGLOBIN CONCENTRATION / MEAN CORPUSCULAR VOLUME / MONOCYTE / NEUTROPHIL / NUCLEATED RED BLOOD CELLS / PLATELET COUNT: tissue Blood; for ALANINE AMINOTRANSFERASE / ALBUMIN / ALKALINE PHOSPHATASE / ASPARTATE AMINOTRANSFERASE / BLOOD UREA NITROGEN / CARBON DIOXIDE / CHLORIDE / CHOLESTEROL / CREATINE PHOSPHOKINASE / CREATININE / GLUCOSE / LACTATE DEHYDROGENASE / LIPASE / PHOSPHORUS / POTASSIUM / SODIUM / TOTAL BILIRUBIN / TOTAL PROTEIN / URIC ACID: tissue Plasma
[1] = 33 mg/kg, 72 h, dose level Low, time 3 day
[2] = 33 mg/kg, 120 h, dose level Low, time 5 day
[3] = 1000 mg/kg, 72 h, dose level High, time 3 day
[4] = 1000 mg/kg, 120 h, dose level High, time 5 day

CO/N=C(\C(=O)N[C@@H]1C(=O)N2C(C(=O)O)=C(COC(C)=O)CS[C@H]12)c1csc(N)n1 [CEFOTAXIME]
ABSOLUTE BASOPHIL [1]: 0 CELLS/uL | ABSOLUTE EOSINOPHIL [1]: 0 CELLS/uL | ABSOLUTE LYMPHOCYTE [1]: 11282.67 CELLS/uL | ABSOLUTE MONOCYTE [1]: 120 CELLS/uL | ABSOLUTE SEGMENTED NEUTROPHIL [1]: 730.67 CELLS/uL | BASOPHIL [1]: 0% | EOSINOPHIL [1]: 0% | ERYTHROCYTE COUNT [1]: 5.79 x10E6/uL | HEMATOCRIT [1]: 35.7% | HEMOGLOBIN [1]: 13.43 G/DL | LEUKOCYTE COUNT [1]: 12.13 x10E3/uL | LYMPHOCYTE [1]: 93% | MEAN CORPUSCULAR HEMOGLOBIN [1]: 23.2 pg | MEAN CORPUSCULAR HEMOGLOBIN CONCENTRATION [1]: 37.63 G/DL | MEAN CORPUSCULAR VOLUME [1]: 61.63 fL | MONOCYTE [1]: 0.67% | NEUTROPHIL [1]: 6.33% | NUCLEATED RED BLOOD CELLS [1]: 0 /100WBC | PLATELET COUNT [1]: 1231.67 x10E3/uL | ALANINE AMINOTRANSFERASE [1]: 55 u/L | ALBUMIN [1]: 4.17 G/DL | ALKALINE PHOSPHATASE [1]: 343 u/L | ASPARTATE AMINOTRANSFERASE [1]: 90.67 u/L | BLOOD UREA NITROGEN [1]: 15.67 mg/dL | CARBON DIOXIDE [1]: 25.67 mmol/L | CHLORIDE [1]: 103.33 MEQ/L | CHOLESTEROL [1]: 73.67 mg/dL | CREATINE PHOSPHOKINASE [1]: 330.67 u/L | CREATININE [1]: 0.38 mg/dL | GLUCOSE [1]: 167.33 mg/dL | LACTATE DEHYDROGENASE [1]: 139.33 u/L | LIPASE [1]: 12 u/L | PHOSPHORUS [1]: 14.17 mg/dL | POTASSIUM [1]: 7.29 MEQ/L | SODIUM [1]: 146.03 MEQ/L | TOTAL BILIRUBIN [1]: 0.17 mg/dL | TOTAL PROTEIN [1]: 5.8 G/DL | URIC ACID [1]: 2.07 mg/dL | ABSOLUTE BASOPHIL [2]: 0 CELLS/uL | ABSOLUTE EOSINOPHIL [2]: 0 CELLS/uL | ABSOLUTE LYMPHOCYTE [2]: 11544.67 CELLS/uL | ABSOLUTE MONOCYTE [2]: 213 CELLS/uL | ABSOLUTE SEGMENTED NEUTROPHIL [2]: 1075.67 CELLS/uL | BASOPHIL [2]: 0% | EOSINOPHIL [2]: 0% | ERYTHROCYTE COUNT [2]: 5.16 x10E6/uL | HEMATOCRIT [2]: 32.83% | HEMOGLOBIN [2]: 12.33 G/DL | LEUKOCYTE COUNT [2]: 12.83 x10E3/uL | LYMPHOCYTE [2]: 90% | MEAN CORPUSCULAR HEMOGLOBIN [2]: 23.93 pg | MEAN CORPUSCULAR HEMOGLOBIN CONCENTRATION [2]: 37.77 G/DL | MEAN CORPUSCULAR VOLUME [2]: 63.47 fL | MONOCYTE [2]: 1.67% | NEUTROPHIL [2]: 8.33% | NUCLEATED RED BLOOD CELLS [2]: 0 /100WBC | PLATELET COUNT [2]: 1107.67 x10E3/uL | ALANINE AMINOTRANSFERASE [2]: 62.33 u/L | ALBUMIN [2]: 4.3 G/DL | ALKALINE PHOSPHATASE [2]: 354.67 u/L | ASPARTATE AMINOTRANSFERASE [2]: 90.33 u/L | BLOOD UREA NITROGEN [2]: 17.67 mg/dL | CARBON DIOXIDE [2]: 23 mmol/L | CHLORIDE [2]: 104.67 MEQ/L | CHOLESTEROL [2]: 70.33 mg/dL | CREATINE PHOSPHOKINASE [2]: 349.67 u/L | CREATININE [2]: 0.49 mg/dL | GLUCOSE [2]: 153 mg/dL | LACTATE DEHYDROGENASE [2]: 186 u/L | LIPASE [2]: 11 u/L | PHOSPHORUS [2]: 11.7 mg/dL | POTASSIUM [2]: 6.42 MEQ/L | SODIUM [2]: 146.17 MEQ/L | TOTAL BILIRUBIN [2]: 0.2 mg/dL | TOTAL PROTEIN [2]: 6.03 G/DL | URIC ACID [2]: 1.63 mg/dL | ABSOLUTE BASOPHIL [3]: 0 CELLS/uL | ABSOLUTE EOSINOPHIL [3]: 92 CELLS/uL | ABSOLUTE LYMPHOCYTE [3]: 10640.67 CELLS/uL | ABSOLUTE MONOCYTE [3]: 57.67 CELLS/uL | ABSOLUTE SEGMENTED NEUTROPHIL [3]: 1309.67 CELLS/uL | BASOPHIL [3]: 0% | EOSINOPHIL [3]: 0.67% | ERYTHROCYTE COUNT [3]: 5.89 x10E6/uL | HEMATOCRIT [3]: 38.83% | HEMOGLOBIN [3]: 13.87 G/DL | LEUKOCYTE COUNT [3]: 12.1 x10E3/uL | LYMPHOCYTE [3]: 88% | MEAN CORPUSCULAR HEMOGLOBIN [3]: 23.53 pg | MEAN CORPUSCULAR HEMOGLOBIN CONCENTRATION [3]: 35.73 G/DL | MEAN CORPUSCULAR VOLUME [3]: 65.93 fL | MONOCYTE [3]: 0.33% | NEUTROPHIL [3]: 11% | NUCLEATED RED BLOOD CELLS [3]: 0.33 /100WBC | PLATELET COUNT [3]: 1356.67 x10E3/uL | ALANINE AMINOTRANSFERASE [3]: 52.33 u/L | ALBUMIN [3]: 4.4 G/DL | ALKALINE PHOSPHATASE [3]: 407.67 u/L | ASPARTATE AMINOTRANSFERASE [3]: 70.33 u/L | BLOOD UREA NITROGEN [3]: 16.67 mg/dL | CARBON DIOXIDE [3]: 29.33 mmol/L | CHLORIDE [3]: 102.33 MEQ/L | CHOLESTEROL [3]: 85.33 mg/dL | CREATINE PHOSPHOKINASE [3]: 225 u/L | CREATININE [3]: 0.27 mg/dL | GLUCOSE [3]: 150 mg/dL | LACTATE DEHYDROGENASE [3]: 77 u/L | LIPASE [3]: 9.67 u/L | PHOSPHORUS [3]: 11.8 mg/dL | POTASSIUM [3]: 6.59 MEQ/L | SODIUM [3]: 146.77 MEQ/L | TOTAL BILIRUBIN [3]: 0.17 mg/dL | TOTAL PROTEIN [3]: 6.43 G/DL | URIC ACID [3]: 2.1 mg/dL | ABSOLUTE BASOPHIL [4]: 0 CELLS/uL | ABSOLUTE EOSINOPHIL [4]: 63 CELLS/uL | ABSOLUTE LYMPHOCYTE [4]: 13558.67 CELLS/uL | ABSOLUTE MONOCYTE [4]: 820 CELLS/uL | ABSOLUTE SEGMENTED NEUTROPHIL [4]: 3591.67 CELLS/uL | BASOPHIL [4]: 0% | EOSINOPHIL [4]: 0.33% | ERYTHROCYTE COUNT [4]: 5.88 x10E6/uL | HEMATOCRIT [4]: 37.4% | HEMOGLOBIN [4]: 14 G/DL | LEUKOCYTE COUNT [4]: 18.03 x10E3/uL | LYMPHOCYTE [4]: 75.33% | MEAN CORPUSCULAR HEMOGLOBIN [4]: 23.8 pg | MEAN CORPUSCULAR HEMOGLOBIN CONCENTRATION [4]: 37.47 G/DL | MEAN CORPUSCULAR VOLUME [4]: 63.57 fL | MONOCYTE [4]: 4.67% | NEUTROPHIL [4]: 19.67% | NUCLEATED RED BLOOD CELLS [4]: 0 /100WBC | PLATELET COUNT [4]: 1367 x10E3/uL | ALANINE AMINOTRANSFERASE [4]: 57.67 u/L | ALBUMIN [4]: 4 G/DL | ALKALINE PHOSPHATASE [4]: 325.67 u/L | ASPARTATE AMINOTRANSFERASE [4]: 70.67 u/L | BLOOD UREA NITROGEN [4]: 19 mg/dL | CARBON DIOXIDE [4]: 23.67 mmol/L | CHLORIDE [4]: 104.67 MEQ/L | CHOLESTEROL [4]: 86.33 mg/dL | CREATINE PHOSPHOKINASE [4]: 235.67 u/L | CREATININE [4]: 0.3 mg/dL | GLUCOSE [4]: 163.33 mg/dL | LACTATE DEHYDROGENASE [4]: 138.67 u/L | LIPASE [4]: 10 u/L | PHOSPHORUS [4]: 12.13 mg/dL | POTASSIUM [4]: 6.32 MEQ/L | SODIUM [4]: 145.77 MEQ/L | TOTAL BILIRUBIN [4]: 0.13 mg/dL | TOTAL PROTEIN [4]: 6.3 G/DL | URIC ACID [4]: 1.7 mg/dL
